The values that follow come from the NIST ThermoML archive (doi:10.1016/j.tca.2010.10.002).

Each structure is given as a SMILES string. Numbers after ± are expanded uncertainties.

The conditions of the series: Liquid, DSC.

For `CCCCCCCCCCCCCCCC(=O)OCC` [ethyl hexadecanoate], the “vapor or sublimation pressure” value (502.27 K) is given as 5.333 ± 0.53 kPa and the “vapor or sublimation pressure” value (515.13 K) was found to be 9.333 ± 0.93 kPa.

Regarding `CCCCCCCCCCCCCCCC(=O)OC` [methyl hexadecanoate], the “vapor or sublimation pressure” value (486.57 K) worked out at 4 ± 0.4 kPa.

As for `CCCCC/C=C\C/C=C\CCCCCCCC(=O)OCC` [ethyl linoleate], the “vapor or sublimation pressure” value (537.69 K) is listed as 9.333 ± 0.93 kPa.

Turning to `CCCCCCCC/C=C\CCCCCCCC(=O)OCC` [ethyl (Z)-9-octadeceneoate], the “vapor or sublimation pressure” value turned out to be 5.333 ± 0.53 kPa (514.61 K) and 9.333 ± 0.94 kPa (536.83 K).

On to `CCCCCCCCCCCCCC(=O)OC` [methyl tetradecanoate], for which the “vapor or sublimation pressure” value (459.62 K) is reported as 4 ± 0.4 kPa.

Turning to `CCCCCCCCCCCCCCCCCC(=O)OCC` [ethyl octadecanoate], the “vapor or sublimation pressure” value (520.56 K) is listed as 5.333 ± 0.53 kPa.
